# Literature values in US20230087756A1, “SYSTEMS AND METHODS FOR […] OF BREWED BEVERAGES AND ACTIVE INGREDIENTS” (RECEPTOR HOLDINGS, INC., priority 2020, published 2023).
compound,measurement,setting,value
"CCCCCc1cc(O)c2c(c1)OC(C)(C)[C@@H]1CCC(C)=C[C@@H]21 [THC, (−)-trans-delta-9-tetrahydrocannabinol]",duration of appetite stimulant effect,after administration,≥ 24 h
same,peak effect,after most forms of oral administration,2 to 4 h
same,absorbed,after single oral doses,90-95%
same,duration of action for psychoactive effects,oral administration,4 to 6 h
